System: PKB Ser473 phosphorylation in Rat1-myr-HA-p110 delta cells
Assay: Reverse protein array, PKB Ser473 phosphorylation in Rat1-myr-HA-p110 delta cells
Format: cell-based
Details: Rattus norvegicus, 0.5 h, 30 minutes compound incubation, read-out: p-PKB/IC50_delta

IC50 | Compound
0.0798 µM | COc1ccc(-c2ccc3ncc4c(c3c2)n(-c2cccnc2C)c(=O)n4C)cn1 [Example 2.12, 8-(6-Methoxy-pyridin-3-yl)-3-methyl-1-(2-methyl-pyridin-3-yl)-1,3-dihydro-imidazo[4,5-c]quinolin-2-one]
0.0341 µM | COc1ccc(-c2ccc3ncc4c(c3c2)n(-c2cccnc2C)c(=O)n4C)cc1OC [Example 2.9, 8-(3,4-Dimethoxy-phenyl)-3-methyl-1-(2-methyl-pyridin-3-yl)-1,3-dihydro-imidazo[4,5-c]quinolin-2-one]
0.043 µM | Cc1nc(C(F)(F)F)ccc1-n1c(=O)n(C)c2cnc3ccc(-c4cncc(C(C)(C)O)c4)cc3c21 [Example 33.1, 8-[5-(1-Hydroxy-1-methyl-ethyl)-pyridin-3-yl]-3-methyl-1-(2-methyl-6-trifluoromethyl-pyridin-3-yl)-1,3-dihydro-imidazo[4,5-c]quinolin-2-one]
0.0328 µM | CCOc1ccc(-c2ccc3ncc4c(c3c2)n(-c2ccc(N3CCNCC3)nc2OC)c(=O)n4C)cn1 [Example 9.1, 8-(6-Ethoxy-pyridin-3-yl)-1-(2-methoxy-6-piperazin-1-yl-pyridin-3-yl)-3-methyl-1,3-dihydro-imidazo[4,5-c]quinolin-2-one]
0.0115 µM | Cn1c(=O)n(-c2cccnc2F)c2c3cc(-c4cnc(N)c(C(F)(F)F)c4)ccc3ncc21 [Example 6.2, 8-(6-Amino-5-trifluoromethyl-pyridin-3-yl)-1-(2-fluoro-pyridin-3-yl)-3-methyl-1,3-dihydro-imidazo[4,5-c]quinolin-2-one]
0.0747 µM | Cc1ncccc1-n1c(=O)n(C)c2cnc3ccc(-c4ccc(CO)nc4)cc3c21 [Example 2.6, 8-(6-Hydroxymethyl-pyridin-3-yl)-3-methyl-1-(2-methyl-pyridin-3-yl)-1,3-dihydro-imidazo[4,5-c]quinolin-2-one]
0.204 µM | CCOc1ncc(-c2ccc3ncc4c(c3c2)n(-c2cccnc2C)c(=O)n4C)cn1 [Example 2.5, 8-(2-Ethoxy-pyrimidin-5-yl)-3-methyl-1-(2-methyl-pyridin-3-yl)-1,3-dihydro-imidazo[4,5-c]quinolin-2-one]
0.0368 µM | CNc1ccc(-c2ccc3ncc4c(c3c2)n(-c2cccnc2C)c(=O)n4C)cn1 [Example 2.13, 3-Methyl-8-(6-methylamino-pyridin-3-yl)-1-(2-methyl-pyridin-3-yl)-1,3-dihydro-imidazo[4,5-c]quinolin-2-one]
0.059 µM | COc1ncc(-c2ccc3ncc4c(c3c2)n(-c2ccc(N3CC[C@H](O)C3)nc2C)c(=O)n4C)c(OC)n1 [Example 32.3, 8-(2,4-Dimethoxy-pyrimidin-5-yl)-1-[6-((S)-3-hydroxy-pyrrolidin-1-yl)-2-methyl-pyridin-3-yl]-3-methyl-1,3-dihydro-imidazo[4,5-c]quinolin-2-one]
0.0207 µM | CNc1ncc(-c2ccc3ncc4c(c3c2)n(-c2ccc(N3CCC(O)C3)nc2C)c(=O)n4C)cn1 (stereo not shown) [Example 27.2, 1-[6-(3-Hydroxy-pyrrolidin-1-yl)-2-methyl-pyridin-3-yl]-3-methyl-8-(2-methylamino-pyrimidin-5-yl)-1,3-dihydro-imidazo[4,5-c]quinolin-2-one]
0.119 µM | COc1ncc(-c2ccc3ncc4c(c3c2)n(-c2ccc(N3CC(O)C3)nc2C)c(=O)n4C)c(OC)n1 [Example 29.6, 8-(2,4-Dimethoxy-pyrimidin-5-yl)-1-[6-(3-hydroxy-azetidin-1-yl)-2-methyl-pyridin-3-yl]-3-methyl-1,3-dihydro-imidazo[4,5-c]quinolin-2-one]
0.155 µM | CCOc1cc(-c2ccc3ncc4c(c3c2)n(-c2ccc(N3CCC3)nc2C)c(=O)n4C)cnc1COC [Example 23.5, 1-(6-Azetidin-1-yl-2-methyl-pyridin-3-yl)-8-(5-ethoxy-6-methoxymethyl-pyridin-3-yl)-3-methyl-1,3-dihydro-imidazo[4,5-c]quinolin-2-one]
0.681 µM | COc1ccc(-c2ccc3ncc4c(c3c2)n(-c2cnccc2C)c(=O)n4C)cn1 [Example 4.3, 8-(6-Methoxy-pyridin-3-yl)-3-methyl-1-(4-methyl-pyridin-3-yl)-1,3-dihydro-imidazo[4,5-c]quinolin-2-one]
0.0239 µM | COc1nc(N2CCNCC2)ccc1-n1c(=O)n(C)c2cnc3ccc(-c4cnc(N)c(C(F)(F)F)c4)cc3c21 [Example 9.2, 8-(6-Amino-5-trifluoromethyl-pyridin-3-yl)-1-(2-methoxy-6-piperazin-1-yl-pyridin-3-yl)-3-methyl-1,3-dihydro-imidazo[4,5-c]quinolin-2-one]
0.144 µM | CCOc1ccc(-c2ccc3ncc4c(c3c2)n(-c2cccnc2F)c(=O)n4C)cn1 [Example 6.1, 8-(6-Ethoxy-pyridin-3-yl)-1-(2-fluoro-pyridin-3-yl)-3-methyl-1,3-dihydro-imidazo[4,5-c]quinolin-2-one]
0.825 µM | COc1cc(-c2ccc3ncc4c(c3c2)n(-c2cccnc2C)c(=O)n4C)cnc1C(OC)OC [Example 2.27, 8-(6-Dimethoxymethyl-5-methoxy-pyridin-3-yl)-3-methyl-1-(2-methyl-pyridin-3-yl)-1,3-dihydro-imidazo[4,5-c]quinolin-2-one]

IC50 | Compound
0.0314 µM | CCNc1cc(-c2ccc3ncc4c(c3c2)n(-c2cccnc2C)c(=O)n4C)cnc1CO [Example 2.31, 8-(5-Ethylamino-6-hydroxymethyl-pyridin-3-yl)-3-methyl-1-(2-methyl-pyridin-3-yl)-1,3-dihydro-imidazo[4,5-c]quinolin-2-one]
0.016 µM | CNc1ncc(-c2ccc3ncc4c(c3c2)n(-c2ccc(N3CC[C@H](O)C3)nc2C)c(=O)n4C)cc1C(F)(F)F [Example 32.5, 1-[6-((S)-3-Hydroxy-pyrrolidin-1-yl)-2-methyl-pyridin-3-yl]-3-methyl-8-(6-methylamino-5-trifluoromethyl-pyridin-3-yl)-1,3-dihydro-imidazo[4,5-c]quinolin-2-one]
0.0254 µM | Cc1nc(N2CCCC2)ccc1-n1c(=O)n(C)c2cnc3ccc(-c4cncc(C(C)(C)O)c4)cc3c21 [Example 25.3, 8-[5-(1-Hydroxy-1-methyl-ethyl)-pyridin-3-yl]-3-methyl-1-(2-methyl-6-pyrrolidin-1-yl-pyridin-3-yl)-1,3-dihydro-imidazo[4,5-c]quinolin-2-one]
0.102 µM | Cc1ncccc1-n1c(=O)n(C)c2cnc3ccc(-c4cnc(N(C)C)nc4)cc3c21 [Example 2.15, 8-(2-Dimethylamino-pyrimidin-5-yl)-3-methyl-1-(2-methyl-pyridin-3-yl)-1,3-dihydro-imidazo[4,5-c]quinolin-2-one]
0.251 µM | CN(C)c1ccc(-c2ccc3ncc4c(c3c2)n(-c2cccnc2)c(=O)n4C)cn1 [Example 5.3, 8-(6-Dimethylamino-pyridin-3-yl)-3-methyl-1-pyridin-3-yl-1,3-dihydro-imidazo[4,5-c]quinolin-2-one]
0.0337 µM | CNc1cc(-c2ccc3ncc4c(c3c2)n(-c2cccnc2C)c(=O)n4C)cnc1C [Example 2.32, 3-Methyl-8-(6-methyl-5-methylamino-pyridin-3-yl)-1-(2-methyl-pyridin-3-yl)-1,3-dihydro-imidazo[4,5-c]quinolin-2-one]
0.123 µM | COCc1ncc(-c2ccc3ncc4c(c3c2)n(-c2ccc(N3CCC3)nc2C)c(=O)n4C)cc1OC(C)C [Example 23.2, 1-(6-Azetidin-1-yl-2-methyl-pyridin-3-yl)-8-(5-isopropoxy-6-methoxymethyl-pyridin-3-yl)-3-methyl-1,3-dihydro-imidazo[4,5-c]quinolin-2-one]
0.0399 µM | COC1CCN(c2ccc(-n3c(=O)n(C)c4cnc5ccc(-c6cncc(C(C)(C)O)c6)cc5c43)c(C)n2)C1 (stereo not shown) [Example 28.1, 8-[5-(1-Hydroxy-1-methyl-ethyl)-pyridin-3-yl]-1-[6-(3-methoxy-pyrrolidin-1-yl)-2-methyl-pyridin-3-yl]-3-methyl-1,3-dihydro-imidazo[4,5-c]quinolin-2-one]
0.0305 µM | CNc1ncc(-c2ccc3ncc4c(c3c2)n(-c2ccc(N3CC[C@H](O)C3)nc2C)c(=O)n4C)cc1F [Example 32.2, 8-(5-Fluoro-6-methylamino-pyridin-3-yl)-1-[6-((S)-3-hydroxy-pyrrolidin-1-yl)-2-methyl-pyridin-3-yl]-3-methyl-1,3-dihydro-imidazo[4,5-c]quinolin-2-one]
0.207 µM | CCOc1cc(-c2ccc3ncc4c(c3c2)n(-c2ccc(OCCOC)nc2C)c(=O)n4C)cnc1COC [Example 22.1, 8-(5-Ethoxy-6-methoxymethyl-pyridin-3-yl)-1-[6-(2-methoxy-ethoxy)-2-methyl-pyridin-3-yl]-3-methyl-1,3-dihydro-imidazo[4,5-c]quinolin-2-one]
0.458 µM | CNC(=O)c1ccc(-c2ccc3ncc4c(c3c2)n(-c2ncccc2C)c(=O)n4C)cc1 [Example 3.5, N-Methyl-4-[3-methyl-1-(3-methyl-pyridin-2-yl)-2-oxo-2,3-dihydro-1H-imidazo[4,5-c]quinolin-8-yl]-benzamide]
0.365 µM | Cn1c(=O)n(-c2cccnc2)c2c3cc(-c4ccc(CO)nc4)ccc3ncc21 [Example 5.1, 8-(6-Hydroxymethyl-pyridin-3-yl)-3-methyl-1-pyridin-3-yl-1,3-dihydro-imidazo[4,5-c]quinolin-2-one]
< 0.00457 µM | Cc1nc(N(C)CCO)ccc1-n1c(=O)n(C)c2cnc3ccc(-c4cnc(N)c(C(F)(F)F)c4)cc3c21 [Example 26.1, 8-(6-Amino-5-trifluoromethyl-pyridin-3-yl)-1-{6-[(2-hydroxy-ethyl)-methyl-amino]-2-methyl-pyridin-3-yl}-3-methyl-1,3-dihydro-imidazo[4,5-c]quinolin-2-one]
0.182 µM | CCOc1cc(-c2ccc3ncc4c(c3c2)n(-c2ccc(F)nc2C)c(=O)n4C)cnc1COC [Example 7.5, 8-(5-Ethoxy-6-methoxymethyl-pyridin-3-yl)-1-(6-fluoro-2-methyl-pyridin-3-yl)-3-methyl-1,3-dihydro-imidazo[4,5-c]quinolin-2-one]
0.0858 µM | CCOc1ccc(-c2ccc3ncc4c(c3c2)n(-c2ccc(F)nc2C)c(=O)n4C)cn1 [Example 7.3, 8-(6-Ethoxy-pyridin-3-yl)-1-(6-fluoro-2-methyl-pyridin-3-yl)-3-methyl-1,3-dihydro-imidazo[4,5-c]quinolin-2-one]

Reference: patent publication US20100311714A1, “1H-IMIDAZO[4,5-c]QUINOLINONE COMPOUNDS” (priority 2009, published 2010)
